# Legend:
# Thymidylate synthase = Thymidylate synthase (Mus musculus, UniProt P07607); experiment: In vitro inhibitory activity against thymidylate synthase from L1210 mouse leukemia cells; format: cell-based
# L1210 = experiment: In vitro inhibition of L1210 mouse leukemia cell growth in culture; format: functional, cell-based
# WIL2 = experiment: Inhibition of human derived cell line W1-L2 cell proliferation; format: functional, cell-based
# Chain of Thymidylate synthase (P07607 whole entry): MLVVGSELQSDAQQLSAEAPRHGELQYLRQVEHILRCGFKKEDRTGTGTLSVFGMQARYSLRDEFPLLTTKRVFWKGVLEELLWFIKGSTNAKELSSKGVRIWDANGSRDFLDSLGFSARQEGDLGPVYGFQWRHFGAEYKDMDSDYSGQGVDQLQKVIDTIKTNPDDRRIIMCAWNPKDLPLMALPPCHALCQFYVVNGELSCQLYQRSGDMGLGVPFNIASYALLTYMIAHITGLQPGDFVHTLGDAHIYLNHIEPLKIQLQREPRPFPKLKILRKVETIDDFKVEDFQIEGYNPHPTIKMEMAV
Structure (SMILES),IC50 (Thymidylate synthase) [nM],IC50 (L1210) [nM],IC50 (WIL2) [nM]
C#CCN(Cc1ccc2nc(Cl)ccc2c1)c1ccc(C(=O)N[C@@H](CCC(=O)O)C(=O)O)cc1,2600,> 100000,–
C#CCN(Cc1ccc2nc(C)cc(O)c2c1)c1ccc(C(=O)N[C@@H](CCC(=O)O)C(=O)O)cc1,6300,> 100000,–
C#CCN(Cc1ccc2nc(N)cc(Cl)c2c1)c1ccc(C(=O)N[C@@H](CCC(=O)O)C(=O)O)cc1,96,11000,–
C#CCN(Cc1ccc2nc(OC)cc(Cl)c2c1)c1ccc(C(=O)N[C@@H](CCC(=O)O)C(=O)O)cc1,9000,> 100000,–
C#CCN(Cc1ccc2nc(C)cc(Br)c2c1)c1ccc(C(=O)N[C@@H](CCC(=O)O)C(=O)O)cc1,220,14000,–
C#CCN(Cc1ccc2[nH]c(N)nc(=O)c2c1)c1ccc(C(=O)N[C@@H](CCC(=O)O)C(=O)O)cc1,–,–,440
C#CCN(Cc1ccc2nc(CC)cc(Cl)c2c1)c1ccc(C(=O)N[C@@H](CCC(=O)O)C(=O)O)cc1,990,> 100000,–
C#CCN(Cc1ccc2nc(C(=O)O)cc(Cl)c2c1)c1ccc(C(=O)N[C@@H](CCC(=O)O)C(=O)O)cc1,31000,> 100000,–
C#CCN(Cc1ccc2nc(Cl)cc(Cl)c2c1)c1ccc(C(=O)N[C@@H](CCC(=O)O)C(=O)O)cc1,–,8000,–
C#CCN(Cc1ccc2nc(CF)cc(Cl)c2c1)c1ccc(C(=O)N[C@@H](CCC(=O)O)C(=O)O)cc1,620,> 100000,–
CCN(Cc1ccc2nc(N)cc(OC)c2c1)c1ccc(C(=O)N[C@@H](CCC(=O)O)C(=O)O)cc1,1900,100000,–
C#CCN(Cc1ccc2nc(N)cc(C)c2c1)c1ccc(C(=O)N[C@@H](CCC(=O)O)C(=O)O)cc1,350,4000,–
C#CCN(Cc1ccc2nc(Cl)cc(Cl)c2c1)c1ccc(C(=O)N[C@@H](CCC(=O)O)C(=O)O)c(F)c1,23,1000,–
Cc1cc(Cl)c2cc(CN(C)c3ccc(C(=O)N[C@@H](CCC(=O)O)C(=O)O)cc3)ccc2n1,2300,24000,–
CCN(Cc1ccc2nccc(Cl)c2c1)c1ccc(C(=O)N[C@@H](CCC(=O)O)C(=O)O)cc1,1130,30000,–
Cc1cc(Cl)c2cc(CNc3ccc(C(=O)N[C@@H](CCC(=O)O)C(=O)O)cc3)ccc2n1,38000,> 100000,–
C#CCN(Cc1ccc2nc(Cl)cc(C)c2c1)c1ccc(C(=O)N[C@@H](CCC(=O)O)C(=O)O)cc1,120,> 100000,–
C#CCN(Cc1ccc2nc(C)cc(Cl)c2c1)c1ccc(C(=O)N[C@@H](CCC(=O)O)C(=O)O)c(F)c1,66,420,–
C#CCN(Cc1ccc2nc(C(F)(F)F)cc(Cl)c2c1)c1ccc(C(=O)N[C@@H](CCC(=O)O)C(=O)O)cc1,150,> 100000,–

# Now from value to compound, other results behind:
IC50 (Thymidylate synthase) [nM],IC50 (L1210) [nM],Structure (SMILES),IC50 (WIL2) [nM]
1200,> 100000,C#CCN(Cc1ccc2nc(NC(C)=O)cc(Cl)c2c1)c1ccc(C(=O)N[C@@H](CCC(=O)O)C(=O)O)cc1,–
–,> 100000,C#CCN(Cc1ccc2nc(C)cc(C)c2c1)c1ccc(C(=O)N[C@@H](CCC(=O)O)C(=O)O)cc1,–
1050,> 100000,CCN(Cc1ccc2nc(CO)cc(Cl)c2c1)c1ccc(C(=O)N[C@@H](CCC(=O)O)C(=O)O)cc1,–
7900,> 100000,C#CCN(Cc1ccc2nc(C)ccc2c1)c1ccc(C(=O)N[C@@H](CCC(=O)O)C(=O)O)cc1,–
48,2900,C#CCN(Cc1ccc2nc(N)cc(Cl)c2c1)c1ccc(C(=O)N[C@@H](CCC(=O)O)C(=O)O)c(F)c1,–
8900,100000,C#CCN(Cc1ccc2nc(C)cc(SC)c2c1)c1ccc(C(=O)N[C@@H](CCC(=O)O)C(=O)O)cc1,–
250,8000,C#CCN(Cc1ccc2nc(C)cc(Cl)c2c1)c1ccc(C(=O)N[C@@H](CCC(=O)O)C(=O)O)cc1,–
6000,> 100000,C#CCN(Cc1ccc2nc(C)cc(OC)c2c1)c1ccc(C(=O)N[C@@H](CCC(=O)O)C(=O)O)cc1,–
96,1000,C#CCN(Cc1ccc2nc(C)cc(Br)c2c1)c1ccc(C(=O)N[C@@H](CCC(=O)O)C(=O)O)c(F)c1,–
150,–,C#CCN(Cc1ccc2nc(Cl)cc(OC)c2c1)c1ccc(C(=O)N[C@@H](CCC(=O)O)C(=O)O)cc1,–
1500,75000,C#CCN(Cc1ccc2nc(C)cc(C#N)c2c1)c1ccc(C(=O)N[C@@H](CCC(=O)O)C(=O)O)cc1,–
740,23000,CCN(Cc1ccc2nc(C)cc(Cl)c2c1)c1ccc(C(=O)N[C@@H](CCC(=O)O)C(=O)O)cc1,–
1900,> 100000,C#CCN(Cc1ccc2nc(C(N)=O)cc(Cl)c2c1)c1ccc(C(=O)N[C@@H](CCC(=O)O)C(=O)O)cc1,–

# — ChEMBL document CHEMBL1126300, “Quinoline antifolate thymidylate synthase inhibitors: variation of the C2- and C4-substituents” (J Med Chem, 1992)
